This note sets out measurements from patent US20250255847A1, “[…]s: Novel Drugs for Triple Negative Breast Cancer” (SIMMARON RSEARCH INC, priority 2024, published 2025).

The test concerns MDA-MB-468 TNBC cells. Put plainly: LDH release cytotoxicity assay in MDA-MB-468 cells. The test is classed as cell-based, human. The conditions noted are these: 48 hrs; for EC50: Homo sapiens, MDA-MB-468, LDH release, read-out: CT50 (half-response of cytotoxicity). Here is the method: FIG. 11 illustrates an embodiment of the present invention and illustrates SIM-1 and SIM-2 induced apoptosis in MDA-MB-468 TNBC cells, but not HMEC control cells. MDA-MB-468 cells were treated with increasing doses of (A) SIM-1 and (B) SIM-2 for 48 hrs followed by lactate dehydrogenase (LDH) release assay in the supernatants. The result was offset with cell-bound LDH and presented as a percent of DMSO control as discussed under method section. Half-maximal cytotoxicity or CT50 analyses were performed plotting maximum response as an index of increasing doses of (C) SIM-1 and (D) SIM-2. AnnexinV (green) and propidium iodide (red) dual-labeling were performed to evaluate apoptotic response in MDA-MB-468 cells once treated with increasing doses of (E) SIM-1 and (F) SIM-2 for 24 hrs. Nuclei were stained with DAPI. TUNEL assay was performed in MDA-MB-468 cells after treatment with 25 nM of (G) SIM-1. Brown-colored TUNEL bodies were visualized at cresyl violet-stained blue nuclei. (H) The number of TUNEL bodies were counted as a percent of 100 cresyl violet-stained blue cells. Ten independent images were counted for the quantification study. Similarly, SIM-2 was assessed for (I) TUNEL and (J) subsequent quantification analyses. One-way ANOVA was performed to test the significance of mean between groups at **p<0.01 and ****p<0.0001. (K) LDH release assay was performed in non-tumor origin human mammary epithelial cells (HMEC) once treated with increasing doses of SIM-1 and SIM-2 for 48 hrs. Ns=no significance. (L) Annexin V (green) and propidium iodide (red) staining was performed in 25 nM SIM-1- and SIM-2-treated HMEC cells. Nuclei were stained with DAPI. Results are confirmed after three different experiments.
LDH Assay. LDH Assay was performed as per manufacturer's instructions (Cat #: 2570393; Vendor: Thermo Fisher Scientific). MDA-MB-468 and HMEC cells were treated with SIMPYRA-1 and SIMPYRA-2 at doses of 2 nM, 5 nM, […] 25 nM. Each dose was measured in triplicates. After 48 hours of incubation at 37° C., 50 μL of soup from each well was harvested and transferred into a new 96 well plate. Each well was treated with 50 μL of reaction mix (Substrate Mixture+deionized water+Assay Buffer). The reaction was stopped with 50 μL of Stop Solution. The plate was read at 490 nm (background at 680 nm).
This example provides a representative experiment that studies if SIM-1 and SIM-2 promoted the death of TNBC cells. The following experiments were adopted to confirm the apoptosis of TNBC cells. […] During apoptosis, phosphatidyl serine of the plasma membrane flips from the inner to the outer membrane which can be detected by Annexin V labeling, whereas PI stains the nucleus of a cell with compromised integrity of the plasma membrane. […]
(Release of lactate dehydrogenase indicates damage to the cell membrane.)

For the compound `O=C(O)CCC(=O)NCc1csc2ccc(Cl)cc12` [SIM-1, 4-[(5-chloro-1-benzothiophen-3-yl)methylamino]-4-oxobutanoic acid], the “concentration of maximum cell death (LDH release)” value is recorded as 20 nM and the EC50 was found to be 20.8 nM.

With `CCOC(=O)c1c(NC(C)=O)sc2c(Cl)c(/C=N/O)ccc12` [SIM-2, ethyl 2-acetamido-7-chloro-6-(hydroxyiminomethyl)-1-benzothiophene-3-carboxylate], the “concentration of maximum cell death (LDH release)” value is 20 nM and the EC50 came to 18.3 nM.
